Laboratory results reported in patent US5541215A, “Heterocycle-substituted benzenemethanamine derivatives” (Janssen Pharmaceutica N.V., priority 1991, dated 1996).
Converted amounts (≈) assume the structure as drawn.

Assays:
[1] = test system: HIV-1; assay: in-vitro anti-HIV assay: inhibition of HIV-induced cytopathic effect in MT-4 cells (MTT); assay type: cell-based; settings: for SI (selectivity index, ratio of CD50 to ED50): CD50/ED50, MT-4 cells; for EC50: Human immunodeficiency virus 1, MT4, read-out: ED50 (50% effective dose)
Protocol: (§1) A rapid, sensitive and automated assay procedure was used for the in-vitro evaluation of anti-HIV agents. An […] T4-cell line, MT-4, which was previously shown Koyanagi et al., Int. J. Cancer, , 36, 445-451, 1985) to be highly susceptible to and permissive for HIV infection, served as the target cell line. Inhibition of the HIV-induced cytopathic effect was used as the end point. The viability of both HIV- and mock-infected cells was assessed spectrophotometrically via the in-situ reduction of 3-(4,5-dimethylthiazol-2-yl)-2,5-diphenyltetrazolium bromide (MTT). The 50% cytotoxic dose (CD50 in μg/ml) was defined as the concentration of compound that reduced the absorbance of the mock-infectedcontrol sample by 50%. The percent protection achieved by the compound in HIV-infected cells was calculated by the following formula: [formula] whereby (ODT)HIV is the optical density measured with a given concentration of the test compound in HIV-infected cells; (ODC)HIV is the optical density measured for the control untreated HIV-infected cells; (ODC)MOCK is the optical density means for the control untreated mock-infected cells; all optical density values were determined at 540 nm. The dose achieving 50% protection according to the above formula was defined as the 50% effective dose […]). The ratio of CD50 to ED50 was defined as the selectivity index (SI).

[2] = in vitro; assay type: cell-based; settings: human, mt-4 cells
Protocol: as §1

CCn1nc(C)c([N+](=O)[O-])c1NC(C(N)=O)c1c(Cl)cccc1Cl (stereo not drawn) [compound 3]
SI (selectivity index, ratio of CD50 to ED50) [1]: 61
EC50 [1]: 2 µg/mL (≈ 5.37 µM)
CC50 [2]: 122 µg/mL (≈ 327 µM)

CC(=O)c1cccnc1NC(C)c1c(Cl)cccc1Cl (racemic) [compound 11, (±)-1-[2-[[1-(2,6-dichlorophenyl)ethyl]amino]-3-pyridinyl]ethanone]
SI (selectivity index, ratio of CD50 to ED50) [1]: 463
EC50 [1]: 0.068 µg/mL (≈ 0.22 µM)
CC50 [2]: 31.4 µg/mL (≈ 102 µM)

CC(Nc1ncccc1[N+](=O)[O-])c1c(Cl)cccc1Cl (stereo not drawn) [compound 13]
SI (selectivity index, ratio of CD50 to ED50) [1]: 33
EC50 [1]: 0.0073 µg/mL (≈ 0.0234 µM)
CC50 [2]: 0.24 µg/mL (≈ 0.769 µM)

CC(=O)c1nccnc1NC(C(N)=O)c1c(Cl)cccc1Cl (stereo not drawn) [compound 7]
SI (selectivity index, ratio of CD50 to ED50) [1]: 41.5
EC50 [1]: 3.8 µg/mL (≈ 11.2 µM)
CC50 [2]: 157 µg/mL (≈ 462 µM)

CC(=O)c1nccnc1NC(C)c1c(Cl)cccc1Cl (stereo not drawn) [compound 12]
SI (selectivity index, ratio of CD50 to ED50) [1]: 289
EC50 [1]: 0.013 µg/mL (≈ 0.0419 µM)
CC50 [2]: 3.82 µg/mL (≈ 12.3 µM)

NC(=O)C(Nc1ccc[nH]c1=O)c1c(Cl)cccc1Cl (racemic) [compound 8, (±)-2,6-dichloro-α-[(1,2-dihydro-2-oxo-3-pyridinyl)amino]benzeneacetamide]
SI (selectivity index, ratio of CD50 to ED50) [1]: 1181
EC50 [1]: 0.18 µg/mL (≈ 0.577 µM)
CC50 [2]: 217 µg/mL (≈ 696 µM)

N#Cc1cccnc1NC(C(N)=O)c1c(Cl)cccc1Cl (stereo not drawn) [compound 2]
SI (selectivity index, ratio of CD50 to ED50) [1]: 243
EC50 [1]: 0.1 µg/mL (≈ 0.311 µM)
CC50 [2]: 25.3 µg/mL (≈ 78.8 µM)

NC(=O)C(Nc1ncccc1[N+](=O)[O-])c1c(Cl)cccc1Cl (racemic) [compound 1, (±)-2,6-dichloro-α-[(3-nitro-2-pyridinyl)amino]benzeneacetamide]
SI (selectivity index, ratio of CD50 to ED50) [1]: 1299
EC50 [1]: 0.03 µg/mL (≈ 0.0879 µM)
CC50 [2]: 35.8 µg/mL (≈ 105 µM)
